Laboratory results: US20250057791A1, “PROTECTION AGAINST ARTHROPOD PARASITES WITH PURINERGIC RECEPTOR (OPR) ANTAGONISTS” (priority 2021, published 2025)

How the values were obtained:
Ixodes ricinus = assay: Glass capillary feeding of partly fed female ticks, Ixodes ricinus; format: in vivo; conditions: for Fluid intake, Median (mg): females, glass capillary
Excerpt: (§1) I. ricinus adults were prefed for 3-4 days and A. hebraeum adults for 10 days on a membrane over bovine blood (Kröber T. and Guerin P. M., 2007, supra). Partly fed I. ricinus and A. hebraeum, freshly detached from the membrane, were tightly fixed by the scutum and alloscutum to double-sided adhesive tape (Tesafix® 4964, Beiersdorf, Hamburg, Germany) on a glass slide and secured with plasticine. Test compounds were fed to these partly-fed female ticks using borosilicate capillary tubes (Clark GC120-10, 0.69 mm i.d., 1.2 mm o.d., 50 mm long; Clark Electromedical Instruments, Pangbourne, Reading, UK) with drawn out tips adapted to fit around the mouthparts of individual ticks. Feeding capillaries were filled with a solution of 100 mM NaCl, 8.9 mM NaHCO3 with 1000 μM ATP added, hereafter termed tick feeding solution (TFS) that served as positive control in each feeding experiment. PR antagonists were added to the TFS and pH of the solution was adjusted to 7.2-7.8. Capillary-fed ticks were kept in a plastic box on a warm plate at 34° C. and 80% RH using wet paper. After 1 h, the amount of solution imbibed by a tick was indicated by the drop of the meniscus in the capillary and measured using Vernier callipers and converted to mg.
Uptake of TFS containing PR antagonists, converted to mg/h for hard ticks and weight gains in mg/25 min for soft ticks, was compared to TFS uptake in the corresponding positive controls. […] For tsetse and horn flies the percentage flies that fed per antagonist treatment served as the criterion for inhibition of feeding. As horn fly sexes emerged within 24 h, both sexes were assumed to show the same degree of appetence. In tsetse, males emerged first so a gender-related appetence could not be excluded. No sex-related feeding differences in feeding were found for testse (GLM, P>0.05) so data for the sexes were pooled. Comparisons of percentage fed flies were made using a Bayesian GLM—the most appropriate model considering the zero-inflated distributions shown by the data sets. […]

A. stephensi = assay: Membrane feeding assay, A. stephensi; format: in vivo, Anopheles stephensi; conditions: for effect on feeding on solution containing ATP, in words: doses as in Table 8
Procedure: Experiments with A. gambiae and A. stephensi were made in a climate chamber at 28° C. and 80% RH during the last 6 hours of scotophase. As a sugar meal can interfere with the blood meal by reducing the number of females that feed, the sucrose solution supplied in rearing cages to mosquitoes employed for feeding experiments was reduced to 5%. […] The 5% sucrose solution was presented to mosquitoes from emergence on four 1 cm diam. cotton dental rolls (Hartmann A G, Neuhausen, Switzerland) inserted in 10 ml upturned glass vials placed in holes at each corner of the rearing cage ceiling. Cotton rolls were turned daily in vials and renewed every two days. Mosquitoes were not fed blood and were deprived of sucrose 17 to 20 hours before experiments. Thirty min before a feeding experiment, between 10-25, 6-day-old females that responded to activation by human breath were removed with a mouth aspirator from the rearing cage wall and placed in polystyrol cylinders with the floor cut out (10 cm dm×15 cm high; Semadeni, Ostermundigen, Switzerland) that served as feeding cages. Each cage was covered with mosquito netting at one end and a soft polyurethane lid at the other.
Mosquitoes were fed for 30 min using a feeding system (Hemotek®, Hemotek Ltd, Blackburn, UK) consisting of 3.5 ml stainless steel reservoirs 37 mm in diameter covered with a 60-90 μm thick silicone-impregnated membrane (Kröber and Guerin, 2007 in “Feeding assays for hard ticks”, Trends in parasitology 23, 445-449; doi 10.1016/j.pt.2007.07.010). Feeding reservoirs reached a temperature of 37° C. within 10 min and were placed on the netting of feeding cages. Mosquitoes were activated using a 200 ms pulse of pure CO2 (volume 6.25 ml) from a pressurised cylinder (Carbagas, Switzerland) using a solenoid valve that caused the CO2 level in the feeding cage to rise to at least 1,500 ppm. Between 3 and 4 sets of 10 feeding cages held in a custom-built Ertacetal® POM frame were tested per day, depending of the number of female mosquitoes available from the colony.
All compounds were tested in a mosquito feeding solution (FS) consisting of 25 mM dextrose, 25 mM NaCl buffered with 8.93 mM NaHCO3 adjusted to pH 7.4. Feeding responses of A. gambiae and A. stephensi to ATP as a function of dose were tested with between 7 to 10 feeding cages per dose. Each feeding experiment with an antagonist systematically included a treatment containing the FS as negative control along with a treatment containing the FS […] These positive and negative controls permitted to monitor any effect of experimental day on feeding responses as a function of dose for antagonists that were recorded over several days. […] Four to 10 cages each with 10 to 29 mosquitoes were tested per antagonist dose. […] The number of feeding cages used to test other compounds and their mixtures as feeding stimulants or as feeding inhibitors is listed on Table 6. The percentage of fed mosquitoes was estimated by visual inspection of abdominal distention that is indicative of engorgement.
Pairwise comparisons of A. gambiae electrophysiological (EP) responses to ATP and adenosine alone and combined with a given dose of PR antagonist, EP responses to ATP alone and combined with a given dose of a metal modulator, and EP responses to ATP prior to and after exposure of a sensillum to a given dose of a PR antagonist were made with a one-tailed Wilcoxon signed-rank test for data showing a non-normal distribution, with a paired Student's t-test for normally distributed data showing homogeneous variance and with a Welch's t-test for normally distributed data showing non-homogeneous variance. […]

Amblyomma hebraeum = assay: Glass capillary feeding of partly fed female ticks, Amblyomma hebraeum; format: in vivo; conditions: females
Excerpt: as §1, with “mg. […]” for “mg.”

[1] = target: Vertebrate P2X3 and P2X2/3 PRs; conditions: cited from earlier work

Compound: O=C(O)c1cc(C(=O)O)c(C(=O)N(Cc2cccc(Oc3ccccc3)c2)[C@H]2CCCc3ccccc32)cc1C(=O)O [A-317491, 5-[(3-phenoxyphenyl)methyl-[(1S)-1,2,3,4-tetrahydronaphthalen-1-yl]carbamoyl]benzene-1,2,4-tricarboxylic acid]
- Fluid intake, Median (mg) (Ixodes ricinus; TFS + 1 μM): 1.5 mg/h
- effect on feeding on solution containing ATP, in words (Ixodes ricinus; doses as in Table 9): inhibited feeding
- % Fed females (mean ± s.e.m.) (A. stephensi; 0.08 μM, feeding solution with 160 μM ATP): 29.68 ± 7.14%
- inhibition at 0.08 µM (A. stephensi; Anopheles stephensi, 0.08 μM, Abbott's formula): 59.3%
- effect on feeding on solution containing ATP, in words (A. stephensi): inhibited feeding
- Fluid intake, Median (mg) (Amblyomma hebraeum; TFS + 1 μM): 6.7 mg/h
- Kd ([1]; Jarvis et al., 2002): 0.9 nM

Compound: Cc1ccc(C(=O)Nc2ccc(S(=O)(=O)O)c3cc(S(=O)(=O)O)cc(S(=O)(=O)O)c23)cc1NC(=O)c1cccc(NC(=O)Nc2cccc(C(=O)Nc3cc(C(=O)Nc4ccc(S(=O)(=O)O)c5cc(S(=O)(=O)O)cc(S(=O)(=O)O)c45)ccc3C)c2)c1 [Suramin]
- Fluid intake, Median (mg) (Ixodes ricinus; TFS + 500 μM): 1.9 mg/h
- % Fed females (mean ± s.e.m.) (A. stephensi; 80 μM, feeding solution with 160 μM ATP): 30.04 ± 7.75%
- inhibition at 80 µM (A. stephensi; Anopheles stephensi, 80 μM, Abbott's formula): 58.8%
- Fluid intake, Median (mg) (Amblyomma hebraeum; TFS + 500 μM): 4.5 mg/h

Compound: Nc1ncnc2c1ncn2[C@@H]1O[C@H](COP(=O)(O)OP(=O)(O)OP(=O)(O)O)[C@@H](O)[C@H]1O [ATP, Adenosine 5′-triphosphate]
- % Fed females (mean ± s.e.m.) (A. stephensi; ATP 160 μM, positive control): 72.96 ± 5.9%
- ED95, feeding stimulant (A. stephensi; feeding as a function of dose): 160000 nM
- affinity [1]: < 1 nM

Compound: Cc1nc(C)c(C)nc1C [TMP, 2,3,5,6-tetramethylpyrazine]
- % Fed females (mean ± s.e.m.) (A. stephensi; 0.8 μM, feeding solution with 160 μM ATP): 26.67 ± 2.98%
- inhibition at 0.8 µM (A. stephensi; Anopheles stephensi, 0.8 μM, Abbott's formula): 63.5%
- effect on feeding on solution containing ATP, in words (A. stephensi): inhibited feeding
